The record followed here is US12570675B2, “Boronic acid compounds” (LG CHEM, LTD., priority 2020, dated 2026).

The structures appear in SMILES notation.

In the assay the target is Proteasome chymotrypsin-like activity (S26 protein from RPMI8226 cells) (Homo sapiens, UniProt P28074). The class given is biochemical. Conditions: S26 protein from RPMI8226 cell extract 2 ug/well, substrate 20 uM, 37° C., 90 minutes; read-out: Proteasome chymotrypsin-like activity inhibition IC50. The protocol:
The abilities to inhibit the proteasome activity of the compounds described in the Examples of the present invention and boronic acid drugs were evaluated as follows.
RPMI8226 cells, which is a multiple myeloma cell line, were cultured and then separated by a centrifuge, and washed twice with phosphate buffered saline (PBS). 20 mM of a tris-HCl (pH 8.0) buffer solution was added to the washed cells, and the cells were disrupted by a homogenizer and centrifuged to obtain S26 protein from the supernatant. Suc-Leu-Leu-Val-Tyr-AMC, for a fluorogenic substrate for the chymotrypsin-like activity of the proteasome, and Z-Leu-Leu-Glu-AMC, for a fluorogenic substrate for the caspase-like activity, were purchased from Calbiochem, EMD Millipore and used. Into each well of a 96-well plate (opaque, black round bottom), 20 ul of the S26 protein (final RPMI8226 cell extract concentration: 2 ug/well), 10 ul of S26 proteasome inhibitor serially diluted from 10 uM (final DMSO concentration: 0.5%), and 20 ul of the fluorogenic substrate for the proteasome chymotrypsin-like or caspase-like activity (final concentration: 20 uM) were added and mixed and allowed to react in a 37° C. incubator for 90 minutes. The fluorescence of the fluorogenic substrate was measured by FlexStation II Fluorometer (Molecular Devices). The fluorescence inhibited by the compound diluted at each concentration was measured as the relative percentage value for the amount obtained from the treatment only with the S26 protein and the fluorogenic substrate. IC50 (inhibitory concentration 50) was expressed in terms of a concentration that inhibits 50% of the maximum fluorescence induced by the fluorogenic substrate.

Proteasome chymotrypsin-like activity (S26 protein from RPMI8226 cells), sequence (P28074 60-263 limits assumed): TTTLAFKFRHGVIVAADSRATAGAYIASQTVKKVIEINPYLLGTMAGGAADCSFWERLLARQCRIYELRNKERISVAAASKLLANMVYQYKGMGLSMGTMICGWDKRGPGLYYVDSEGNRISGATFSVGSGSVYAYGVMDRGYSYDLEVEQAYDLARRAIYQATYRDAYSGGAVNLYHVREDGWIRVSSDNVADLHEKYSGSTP

By IC50 is commonly meant the concentration that inhibits the measured activity by half. On to `COc1cccc(-c2cccc(COCC3=NOC(Cc4ccccc4)(C(=O)N[C@@H](CC(C)C)B(O)O)C3)c2)c1` (stereo partly drawn) [Example 57, ((1R)-1-(5-benzyl-3-(((3′-methoxy-[1,1′-biphenyl]-3-yl)methoxy)methyl)-4,5-dihydroisoxazol-5-carboxamido)-3-methylbutyl)boronic acid], for which the IC50 is less than 25 nM.

As to `COc1cccc(C(=O)NCC2=NOC(Cc3ccccc3)(C(=O)N[C@@H](CC(C)C)B(O)O)C2)n1` (some centres unmarked) [Example 322], the IC50 is less than 10 nM.

For `CC(C)C[C@H](NC(=O)C1(Cn2cccn2)CC(CNC(=O)c2nccc3ccccc23)=NO1)B(O)O` (stereo partly drawn) [Example 128, ((1R)-1-(5-((1H-pyrazol-1-yl)methyl)-3-((isoquinolin-1-carboxamido)methyl)-4,5-dihydroisoxazol-5-carboxamido)-3-methylbutyl)boronic acid], the IC50 was less than 10 nM.

On to `CC(C)C[C@H](NC(=O)C1(Cc2ccccc2)CC(CCNC(=O)c2nccc3ccccc23)=NO1)B(O)O` (some centres unmarked) [Example 253], for which the IC50 is less than 10 nM.

Turning to `CC(C)C[C@H](NC(=O)C1(Cc2ccccc2)CC(CNC(=O)c2cc(C(C)C)nn2C(C)C)=NO1)B(O)O` (stereo partly drawn) [Example 227, ((1R)-1-(5-benzyl-3-((1,3-diisopropyl-1H-pyrazol-5-carboxamido)methyl)-4,5-dihydroisoxazol-5-carboxamido)-3-methylbutyl)boronic acid], the IC50 was less than 10 nM.

As for `Cc1cccc(CC2(C(=O)N[C@@H](CC(C)C)B(O)O)CC(CNC(=O)c3cc(-c4ccccn4)nn3C(C)C)=NO2)c1` (stereo partly drawn) [Example 245, ((1R)-1-(3-((1-isopropyl-3-(pyridin-2-yl)-1H-pyrazol-5-carboxamido)methyl)-5-(3-methylbenzyl)-4,5-dihydroisoxazol-5-carboxamido)-3-methylbutyl)boronic acid], the IC50 is less than 10 nM.

As for `CC(C)C[C@H](NC(=O)C1CC(CNC(=O)c2ccc(C(C)(C)C)cc2)=NO1)B(O)O` (stereo partly drawn) [Example 70, ((1R)-1-(3-((4-(tert-butyl)benzamido)methyl)-4,5-dihydroisoxazol-5-carboxamido)-3-methylbutyl)boronic acid], the IC50 was less than 100 nM.

Take `CC(C)C[C@H](NC(=O)C1(Cc2ccccc2)CC(CNC(=O)c2cccc(-c3ccccc3)c2)=NO1)B(O)O` (stereo partly drawn) [Example 95, ((1R)-1-(3-([1,1′-biphenyl]-3-carboxamidomethyl)-5-benzyl-4,5-dihydroisoxazol-5-carboxamido)-3-methylbutyl)boronic acid]: the IC50 was less than 10 nM.

Turning to `O=C(NCC1=NOC(Cc2ccccc2)(C(=O)N[C@@H](Cc2ccccc2)B(O)O)C1)c1cccn2ccnc12` (stereo partly drawn) [Example 300, ((1R)-1-(5-benzyl-3-((imidazo[1,2-a]pyridin-8-carboxamido)methyl)-4,5-dihydroisoxazol-5-carboxamido)-2-phenylethyl)boronic acid], the IC50 was less than 10 nM.

In the case of `CC(C)[C@H](NC(=O)C1(Cc2ccccc2)CC(CNC(=O)c2cc(Cl)ccc2Cl)=NO1)B(O)O` (stereo partly drawn) [Example 315, ((1R)-1-(5-benzyl-3-((2,5-dichlorobenzamido)methyl)-4,5-dihydroisoxazol-5-carboxamido)-2-methylpropyl)boronic acid], the IC50 is less than 10 nM.

Consider `CC(C)C[C@H](NC(=O)C1CC(CNC(=O)c2cccc3ncccc23)=NO1)B(O)O` (stereo partly drawn) [Example 62, ((1R)-3-methyl-1-(3-((quinolin-5-carboxamido)methyl)-4,5-dihydroisoxazol-5-carboxamido)butyl)boronic acid], for which the IC50 is less than 25 nM.

As to `CC(C)C[C@H](NC(=O)C1(Cc2cccc(F)c2F)CC(CNC(=O)c2nccc3ccccc23)=NO1)B(O)O` (stereo partly drawn) [Example 203, ((1R)-1-(5-(2,3-difluorobenzyl)-3-((isoquinolin-1-carboxamido)methyl)-4,5-dihydroisoxazol-5-carboxamido)-3-methylbutyl)boronic acid], the IC50 was less than 10 nM.

Turning to `CC(C)C[C@H](NC(=O)C1(Cc2ccccc2)CC(c2cccc(-c3nccc4ccccc34)c2)=NO1)B(O)O` (stereo partly drawn) [Example 36, ((1R)-1-(5-benzyl-3-(3-(isoquinolin-1-yl)phenyl)-4,5-dihydroisoxazol-5-carboxamido)-3-methylbutyl)boronic acid], the IC50 is less than 250 nM.

Take `CC(C)C[C@H](NC(=O)C12CCCC1C(CNC(=O)c1nccc3ccccc13)=NO2)B(O)O` (stereo partly drawn) [Example 198, ((1R)-1-(3-((isoquinolin-1-carboxamido)methyl)-3a,5,6,6a-tetrahydro-4H-cyclopenta[d]isoxazol-6a-carboxamido)-3-methylbutyl)boronic acid]: the IC50 was less than 100 nM.

In the case of `CC(C)[C@H](NC(=O)C1(Cc2ccccc2)CC(CNC(=O)c2cccc(Cl)n2)=NO1)B(O)O` (stereo partly drawn) [Example 319, ((1R)-1-(5-benzyl-3-((6-chloropicolinamido)methyl)-4,5-dihydroisoxazol-5-carboxamido)-2-methylpropyl)boronic acid], the concentration for half-maximal inhibition (IC50) was less than 10 nM.

With `CC(C)C[C@H](NC(=O)C1(Cc2ccccc2)CC(CNC(=O)c2ccccc2-c2ccccc2)=NO1)B(O)O` (stereo partly drawn) [Example 97, ((1R)-1-(3-([1,1′-biphenyl]-2-carboxamidomethyl)-5-benzyl-4,5-dihydroisoxazol-5-carboxamido)-3-methylbutyl)boronic acid], the IC50 was less than 10 nM.

`CC(C)C[C@H](NC(=O)C1CC(c2cccc(OCc3ccccn3)c2)=NO1)B(O)O` (stereo partly drawn) [Example 43, ((1R)-3-methyl-1-(3-(3-(pyridin-2-ylmethoxy)phenyl)-4,5-dihydroisoxazol-5-carboxamido)butyl)boronic acid]: the IC50 was less than 250 nM.

As for `CC(C)C[C@H](NC(=O)C1(Cc2ccccc2)CC(CNC(=O)c2cc(-c3cccnc3)nn2C(C)C)=NO1)B(O)O` (stereo partly drawn) [Example 228, ((1R)-1-(5-benzyl-3-((1-isopropyl-3-(pyridin-3-yl)-1H-pyrazol-5-carboxamido)methyl)-4,5-dihydroisoxazol-5-carboxamido)-3-methylbutyl)boronic acid], the IC50 was less than 10 nM.

As to `CC(C)C[C@H](NC(=O)C1CC(c2ccc(-c3cccc(F)c3)cn2)=NO1)B(O)O` (stereo partly drawn) [Example 28, ((1R)-1-(3-(5-(3-fluorophenyl)pyridin-2-yl)-4,5-dihydroisoxazol-5-carboxamido)-3-methylbutyl)boronic acid], the IC50 is less than 250 nM.

`CC(C)C[C@H](NC(=O)C1(Cc2ccccc2)CC(CNC(=O)c2cccc(C#N)n2)=NO1)B(O)O` (some centres unmarked) [Example 323]: the IC50 was less than 10 nM.

In the case of `CC(C)C[C@H](NC(=O)C1(Cc2ccccc2)CC(COc2ccc3ccccc3c2)=NO1)B(O)O` (some centres unmarked) [Example 262], the IC50 is less than 100 nM.

Regarding `CC(C)C[C@H](NC(=O)C1CC(Cc2ccc3ccccc3c2)=NO1)B(O)O` (stereo partly drawn) [Example 18, ((1R)-3-methyl-1-(3-(naphthalen-2-ylmethyl)-4,5-dihydroisoxazol-5-carboxamido)butyl)boronic acid], the IC50 was less than 500 nM.

Consider `CC(C)C[C@H](NC(=O)C1CC(C(=O)Nc2cccc3ccccc23)=NO1)B(O)O` (stereo partly drawn) [Example 76, ((1R)-3-methyl-1-(3-(naphthalen-1-ylcarbamoyl)-4,5-dihydroisoxazol-5-carboxamido)butyl)boronic acid], for which the IC50 was less than 50 nM.

With `CC(C)C[C@H](NC(=O)C1(Cc2ccccc2)CC(CNC(=O)c2cccn3c(Cl)cnc23)=NO1)B(O)O` (stereo partly drawn) [Example 142, ((1R)-1-(5-benzyl-3-((3-chloroimidazo[1,2-a]pyridin-8-carboxamido)methyl)-4,5-dihydroisoxazol-5-carboxamido)-3-methylbutyl)boronic acid], the IC50 was less than 10 nM.

As for `CC(C)C[C@H](NC(=O)[C@]1(Cc2ccccc2)CC(c2cccc(C(C)(C)C)c2)=NO1)B(O)O` [Example 24, ((R)-1-((S)-5-benzyl-3-(3-(tert-butyl)phenyl)-4,5-dihydroisoxazol-5-carboxamido)-3-methylbutyl)boronic acid], the IC50 is less than 500 nM.

As to `CC(C)C[C@H](NC(=O)C1(Cc2ccccc2)CC(CNC(=O)c2cccc(C#N)c2)=NO1)B(O)O` (some centres unmarked) [Example 316], the IC50 was less than 10 nM.

Take `CC(C)C[C@H](NC(=O)C1CC([C@@H](NC(=O)c2cccc3c2CCCC3)C(C)C)=NO1)B(O)O` (stereo partly drawn) [Example 66, ((1R)-3-methyl-1-(3-((S)-2-methyl-1-(5,6,7,8-tetrahydronaphthalen-1-carboxamido)propyl)-4,5-dihydroisoxazol-5-carboxamido)butyl)boronic acid]: the IC50 is less than 25 nM.

Take `O=C(NCC1=NOC(Cc2ccccc2)(C(=O)N[C@@H](Cc2ccccc2)B(O)O)C1)c1cccn2cnnc12` (stereo partly drawn) [Example 306, ((1R)-1-(3-(([1,2,4]triazolo[4,3-a]pyridin-8-carboxamido)methyl)-5-benzyl-4,5-dihydroisoxazol-5-carboxamido)-2-phenylethyl)boronic acid]: the IC50 is less than 10 nM.

Regarding `Cc1cccc(COCC2=NOC(Cc3ccccc3)(C(=O)N[C@@H](Cc3ccccc3)B(O)O)C2)c1` (stereo partly drawn) [Example 271, ((1R)-1-(5-benzyl-3-(((3-methylbenzyl)oxy)methyl)-4,5-dihydroisoxazol-5-carboxamido)-2-phenylethyl)boronic acid], the IC50 is less than 10 nM.
